Results reported in US20240238358A1, “TRADITIONAL CHINESE MEDICINE COMPOSITION FOR INFECTIOUS DISEASE RECOVERY AND USE THEREOF” (CHINA RESOURCES SANJIU MEDICAL & PHARMACEUTICAL CO., LTD., priority 2021, published 2024).

Tested on: ARE luciferase activity of 293T cells
Experiment: ARE luciferase reporter gene activity in transfected 293T cells (dual-luciferase, anti-oxidation activity)
Assay type: cell-based
Details: tBHQ 10 μM, 6 h, n = 18, control = 1 ± 0.19, relative luciferase activity
Procedure: The 293T cells in the logarithmic growth phase were inoculated in a 96-well cell culture plate at a density of 2×10^5 cells/mL. After the growth density of the cells reached 70%-80%, the ARE and NF-kB luciferase reporter plasmids pGL4.37 and pGL4.32 (100 ng/well) and the […] luciferase reporter plasmid pGL4.75 (10 ng/well) were simultaneously transfected using the PEI (1 mg/mL) transfection reagent and then cultured for 24 h. After 24 h of culture, cells transfected with the ARE luciferase reporter plasmid pGL4.37 were added to tBHQ (10 μM) and each of the sample solutions of the traditional Chinese compositions of the present disclosure with safe concentrations, respectively, a control group was set, and the cells were cultured for 6 h; cells transfected with the NF-kB luciferase reporter plasmid pGL4.32 were added to TNF-α (10 ng/mL)-dexamethasone (10 μM) diluted with a complete medium and each of the sample solutions of the traditional Chinese compositions of the present disclosure with safe concentrations, respectively, a control group and a model group (10 ng/mL TNF-a) were set, and the cells were cultured for 6 h. The supernatant was discarded, the cells were rinsed with PBS, and after the cells were lysed, the cells were detected by a dual-luciferase detection system. Six duplicate wells were set for each experiment, and each experiment was repeated three times. […]

Compound: CC(C)(C)c1cc(O)ccc1O [tBHQ, tertiary butylhydroquinone]
- ARE luciferase activity of 293T cells (x ± SD): 6.82 ± 1.28
